Data from PMC5909127, “Optimization of a “bump-and-hole” approach to allele-selective BET bromodomain inhibition” (Chemical Science, 2018).

Legend:
[1] = biological target: WT BET bromodomains (BD1 and BD2 of BRD2, BRD3 and BRD4); test: competitive AlphaLISA (Bio-JQ1 displacement); type: binding, human; conditions: mean and SD of all somatic bromodomains; active enantiomer concentration
[2] = test system: L/V BET bromodomains (BD1 and BD2 of BRD2, BRD3 and BRD4); test: competitive AlphaLISA (Bio-JQ1 displacement); type: binding, human; conditions: for AlphaLISA pIC50 ± SD Δ: L/V minus WT
BRD2 BD1 L/V [3] = biological target: T1, BRD2 BD1 L/V (Homo sapiens, UniProt P25440, L110V); test: competitive AlphaLISA; type: binding; conditions: read-out: AlphaLISA pIC50 Value BRD2 BD1 L/V (converted)
T1 sequence (P25440 71-176 L110V limits assumed): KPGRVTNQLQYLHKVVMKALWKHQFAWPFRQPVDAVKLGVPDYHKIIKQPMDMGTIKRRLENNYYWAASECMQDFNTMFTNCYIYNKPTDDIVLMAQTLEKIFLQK

BRD2 BD2 WT [4] = biological target: T2, BRD2 BD2 WT (Homo sapiens, UniProt P25440); test: competitive AlphaLISA; type: binding; conditions: read-out: AlphaLISA pIC50 Value BRD2 BD2 WT (converted)
T2 sequence (P25440 344-455): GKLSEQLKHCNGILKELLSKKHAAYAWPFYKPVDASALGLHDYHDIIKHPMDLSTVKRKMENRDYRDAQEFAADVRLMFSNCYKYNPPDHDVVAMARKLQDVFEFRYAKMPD

BRD3 BD1 WT [5] = biological target: T3, BRD3 BD1 WT (Homo sapiens, UniProt Q15059); test: competitive AlphaLISA; type: binding; conditions: read-out: AlphaLISA pIC50 Value BRD3 BD1 WT (converted)
T3 sequence (Q15059 24-144): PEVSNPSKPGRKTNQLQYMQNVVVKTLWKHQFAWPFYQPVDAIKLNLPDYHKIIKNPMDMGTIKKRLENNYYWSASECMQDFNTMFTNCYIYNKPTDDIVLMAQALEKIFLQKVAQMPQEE

BRD3 BD1 L/V [6] = biological target: T4, BRD3 BD1 L/V (Homo sapiens, UniProt Q15059, L70V); test: competitive AlphaLISA; type: binding; conditions: read-out: AlphaLISA pIC50 Value BRD3 BD1 L/V (converted)
T4 sequence (Q15059 24-144 L70V limits assumed): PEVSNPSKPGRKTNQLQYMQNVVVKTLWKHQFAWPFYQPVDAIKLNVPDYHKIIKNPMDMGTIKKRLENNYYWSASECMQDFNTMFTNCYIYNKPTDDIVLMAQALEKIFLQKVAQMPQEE

BRD3 BD2 WT [7] = biological target: T5, BRD3 BD2 WT (Homo sapiens, UniProt Q15059); test: competitive AlphaLISA; type: binding; conditions: read-out: AlphaLISA pIC50 Value BRD3 BD2 WT (converted)
T5 sequence (Q15059 306-416): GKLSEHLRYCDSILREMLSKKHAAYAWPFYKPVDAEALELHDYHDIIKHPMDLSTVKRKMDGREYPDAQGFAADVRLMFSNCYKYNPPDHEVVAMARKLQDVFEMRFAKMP

BRD3 BD2 L/V [8] = biological target: T6, BRD3 BD2 L/V (Homo sapiens, UniProt Q15059, L345V); test: competitive AlphaLISA; type: binding; conditions: read-out: AlphaLISA pIC50 Value BRD3 BD2 L/V (converted)
T6 sequence (Q15059 306-416 L345V limits assumed): as the sequence (Q15059 306-416) above, with L40V counted along it

BRDT BD2 WT = BRDT BD2 WT (Homo sapiens, UniProt Q58F21); test: competitive AlphaLISA; type: binding; conditions: read-out: AlphaLISA pIC50 Value BRDT BD2 WT (converted)
BRDT BD2 L/V = BRDT BD2 L/V (Homo sapiens, UniProt Q58F21, L306V); test: competitive AlphaLISA; type: binding; conditions: read-out: AlphaLISA pIC50 Value BRDT BD2 L/V (converted)
BRD2 BD1 WT [9] = biological target: T7, BRD2 BD1 WT (Homo sapiens, UniProt P25440); test: ITC; type: binding; conditions: for Kd: 30°C, read-out: Kd BRD2 BD1 WT
T7 sequence (P25440 71-176): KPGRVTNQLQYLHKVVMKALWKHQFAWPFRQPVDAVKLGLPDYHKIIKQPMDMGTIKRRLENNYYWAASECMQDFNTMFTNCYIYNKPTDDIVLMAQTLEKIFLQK

BRD2 BD1 L/V [10] = biological target: T1, BRD2 BD1 L/V; test: ITC; type: binding; conditions: for ΔH BRD2 BD1 L/V / Kd: ITC; for Kd: 30°C, read-out: Kd BRD2 BD1 L/V
BRD2 BD2 WT [11] = biological target: T2, BRD2 BD2 WT; test: ITC; type: binding; conditions: for Kd: 30°C, read-out: Kd BRD2 BD2 WT
BRD2 BD2 L/V [12] = biological target: T8, BRD2 BD2 L/V (Homo sapiens, UniProt P25440, L383V); test: ITC; type: binding; conditions: for ΔH BRD2 BD2 L/V / Kd: ITC; for Kd: 30°C, read-out: Kd BRD2 BD2 L/V
T8 sequence (P25440 344-455 L383V): as the sequence (P25440 344-455) above, with L40V counted along it

BRD3 BD1 WT [13] = biological target: T3, BRD3 BD1 WT; test: ITC; type: binding; conditions: for Kd: 30°C, read-out: Kd BRD3 BD1 WT
BRD3 BD1 L/V [14] = biological target: T4, BRD3 BD1 L/V; test: ITC; type: binding; conditions: for ΔH BRD3 BD1 L/V / Kd: ITC; for Kd: 30°C, read-out: Kd BRD3 BD1 L/V
BRD3 BD2 WT [15] = biological target: T5, BRD3 BD2 WT; test: ITC; type: binding; conditions: for Kd: 30°C, read-out: Kd BRD3 BD2 WT
BRD3 BD2 L/V [16] = biological target: T6, BRD3 BD2 L/V; test: ITC; type: binding; conditions: for ΔH BRD3 BD2 L/V / Kd: ITC; for Kd: 30°C, read-out: Kd BRD3 BD2 L/V
[17] = biological target: WT somatic BET bromodomains; test: ITC; conditions: for ITC pKd ± SD WT: mean and SD of all somatic bromodomains
[18] = test system: L/V somatic BET bromodomains; test: ITC; conditions: for ITC pKd ± SD Δ: L/V minus WT
in vitro [19] = conditions: BALB/c, mouse, plasma, pH 7.4
in vitro [20] = conditions: PAMPA, pH 7.4
BRD2 BD1 WT [21] = biological target: T7, BRD2 BD1 WT; test: competitive AlphaLISA; type: binding; conditions: read-out: AlphaLISA pIC50 Value BRD2 BD1 WT (converted)
BRD2 BD2 L/V [22] = biological target: T8, BRD2 BD2 L/V; test: competitive AlphaLISA; type: binding; conditions: read-out: AlphaLISA pIC50 Value BRD2 BD2 L/V (converted)
BRD4 BD1 WT [23] = biological target: T9, BRD4 BD1 WT (Homo sapiens, UniProt O60885); test: competitive AlphaLISA; type: binding; conditions: read-out: AlphaLISA pIC50 Value BRD4 BD1 WT (converted)
BRD4 BD1 L/V [24] = biological target: T10, BRD4 BD1 L/V (Homo sapiens, UniProt O60885, L94V); test: competitive AlphaLISA; type: binding; conditions: read-out: AlphaLISA pIC50 Value BRD4 BD1 L/V (converted)
BRD4 BD2 WT [25] = biological target: T11, BRD4 BD2 WT (Homo sapiens, UniProt O60885); test: competitive AlphaLISA; type: binding; conditions: read-out: AlphaLISA pIC50 Value BRD4 BD2 WT (converted)
BRD4 BD2 L/V [26] = biological target: T12, BRD4 BD2 L/V (Homo sapiens, UniProt O60885, L387V); test: competitive AlphaLISA; type: binding; conditions: read-out: AlphaLISA pIC50 Value BRD4 BD2 L/V (converted)
BRDT BD1 WT = BRDT BD1 WT (Homo sapiens, UniProt Q58F21); test: competitive AlphaLISA; type: binding; conditions: read-out: AlphaLISA pIC50 Value BRDT BD1 WT (converted)
BRD4 BD1 WT [27] = biological target: T9, BRD4 BD1 WT; test: ITC; type: binding; conditions: ITC, 30°C; read-out: Kd BRD4 BD1 WT
BRD4 BD1 L/V [28] = biological target: T10, BRD4 BD1 L/V; test: ITC; type: binding
BRD4 BD2 WT [29] = biological target: T11, BRD4 BD2 WT; test: ITC; type: binding; conditions: ITC, 30°C; read-out: Kd BRD4 BD2 WT
BRD4 BD2 L/V [30] = biological target: T12, BRD4 BD2 L/V; test: ITC; type: binding

Compound: CCNC(=O)[C@H](C)[C@@H]1N=C(c2ccc(Cl)cc2)c2cc(OC)ccc2-n2c(C)nnc21 (relative stereo) [Compound 16]
- AlphaLISA pIC50 ± SD WT [1]: 5.3 ± 0.2
- AlphaLISA pIC50 ± SD Δ [2]: 1.4 ± 0.2
- IC50 (BRD2 BD1 L/V [3]): 0.398 µM
- IC50 (BRD2 BD2 WT [4]): 5.01 µM
- IC50 (BRD3 BD1 WT [5]): 2 µM
- IC50 (BRD3 BD1 L/V [6]): 0.1 µM
- IC50 (BRD3 BD2 WT [7]): 3.98 µM
- IC50 (BRD3 BD2 L/V [8]): 0.0794 µM
- IC50 (BRDT BD2 WT): 7.94 µM
- IC50 (BRDT BD2 L/V): 0.398 µM
- ΔH BRD2 BD1 WT (BRD2 BD1 WT [9]; ITC): -4.5 kcal/mol
- N BRD2 BD1 WT (BRD2 BD1 WT [9]; ITC stoichiometry): 0.94
- Kd (BRD2 BD1 WT [9]; ITC): 2.2 µM
- ΔH BRD2 BD1 L/V (BRD2 BD1 L/V [10]): -16.3 kcal/mol
- Kd (BRD2 BD1 L/V [10]): 0.12 µM
- ΔH BRD2 BD2 WT (BRD2 BD2 WT [11]; ITC): -3.9 kcal/mol
- N BRD2 BD2 WT (BRD2 BD2 WT [11]; ITC stoichiometry): 0.65
- Kd (BRD2 BD2 WT [11]; ITC): 2.4 µM
- ΔH BRD2 BD2 L/V (BRD2 BD2 L/V [12]): -9.9 kcal/mol
- Kd (BRD2 BD2 L/V [12]): 0.19 µM
- ΔH BRD3 BD1 WT (BRD3 BD1 WT [13]; ITC): -8.8 kcal/mol
- N BRD3 BD1 WT (BRD3 BD1 WT [13]; ITC stoichiometry): 0.81
- Kd (BRD3 BD1 WT [13]; ITC): 1.6 µM
- ΔH BRD3 BD1 L/V (BRD3 BD1 L/V [14]): -19.0 kcal/mol
- Kd (BRD3 BD1 L/V [14]): 0.06 µM
- ΔH BRD3 BD2 WT (BRD3 BD2 WT [15]; ITC): -6.0 kcal/mol
- N BRD3 BD2 WT (BRD3 BD2 WT [15]; ITC stoichiometry): 0.88
- Kd (BRD3 BD2 WT [15]; ITC): 1.5 µM
- ΔH BRD3 BD2 L/V (BRD3 BD2 L/V [16]): -12.9 kcal/mol
- Kd (BRD3 BD2 L/V [16]): 0.13 µM
- ITC pKd ± SD WT [17]: 5.6 ± 0.3
- ITC pKd ± SD Δ [18]: 1.3 ± 0.3
- half-life at 50 µM (in vitro [19]): > 3 h
- Papp (in vitro [20]): 2.6 ×10⁻⁶ cm/s

Compound: CCNC(=O)[C@H](CC)[C@@H]1N=C(c2ccc(Cl)cc2)c2cc(OC)ccc2-n2c(C)nnc21 (relative stereo) [Compound 17]
- AlphaLISA pIC50 ± SD WT [1]: 4.4 ± 0.1
- AlphaLISA pIC50 ± SD Δ [2]: 1.5 ± 0.2
- AlphaLISA pIC50 ± SD L/V ([2]; mean and SD of all somatic bromodomains, active enantiomer concentration): 5.9 ± 0.3
- IC50 (BRD2 BD1 WT [21]): 63.1 µM
- IC50 (BRD2 BD1 L/V [3]): 3.16 µM
- IC50 (BRD2 BD2 WT [4]): 25.1 µM
- IC50 (BRD2 BD2 L/V [22]): 1.26 µM
- IC50 (BRD3 BD1 WT [5]): 31.6 µM
- IC50 (BRD3 BD1 L/V [6]): 0.501 µM
- IC50 (BRD3 BD2 WT [7]): 39.8 µM
- IC50 (BRD3 BD2 L/V [8]): 0.794 µM
- IC50 (BRD4 BD1 WT [23]): 50.1 µM
- IC50 (BRD4 BD1 L/V [24]): 2 µM
- IC50 (BRD4 BD2 WT [25]): 63.1 µM
- IC50 (BRD4 BD2 L/V [26]): 2 µM
- IC50 (BRDT BD1 WT): 63.1 µM
- IC50 (BRDT BD2 WT): 79.4 µM
- IC50 (BRDT BD2 L/V): 5.01 µM
- Kd (BRD2 BD1 WT [9]; ITC): > 60 µM
- ΔH BRD2 BD1 L/V (BRD2 BD1 L/V [10]): -10.2 kcal/mol
- N BRD2 BD1 L/V (BRD2 BD1 L/V [10]; ITC stoichiometry): 0.97
- Kd (BRD2 BD1 L/V [10]): 0.96 µM
- Kd (BRD2 BD2 WT [11]; ITC): > 60 µM
- ΔH BRD2 BD2 L/V (BRD2 BD2 L/V [12]): -5.3 kcal/mol
- N BRD2 BD2 L/V (BRD2 BD2 L/V [12]; ITC stoichiometry): 0.94
- Kd (BRD2 BD2 L/V [12]): 1.3 µM
- Kd (BRD3 BD1 WT [13]; ITC): > 60 µM
- ΔH BRD3 BD1 L/V (BRD3 BD1 L/V [14]): -9.4 kcal/mol
- N BRD3 BD1 L/V (BRD3 BD1 L/V [14]; ITC stoichiometry): 1.07
- Kd (BRD3 BD1 L/V [14]): 0.74 µM
- Kd (BRD3 BD2 WT [15]; ITC): > 60 µM
- ΔH BRD3 BD2 L/V (BRD3 BD2 L/V [16]): -4.7 kcal/mol
- N BRD3 BD2 L/V (BRD3 BD2 L/V [16]; ITC stoichiometry): 0.68
- Kd (BRD3 BD2 L/V [16]): 0.61 ± 0.09 µM
- Kd (BRD4 BD1 WT [27]): > 60 µM
- ΔH BRD4 BD1 L/V (BRD4 BD1 L/V [28]; ITC): -5.9 kcal/mol
- N BRD4 BD1 L/V (BRD4 BD1 L/V [28]; ITC stoichiometry): 0.99
- Kd (BRD4 BD1 L/V [28]; ITC, 30°C, read-out: Kd BRD4 BD1 L/V): 1.6 µM
- Kd (BRD4 BD2 WT [29]): > 60 µM
- ΔH BRD4 BD2 L/V (BRD4 BD2 L/V [30]; ITC): -3.7 kcal/mol
- N BRD4 BD2 L/V (BRD4 BD2 L/V [30]; ITC stoichiometry): 0.99
- Kd (BRD4 BD2 L/V [30]; ITC, 30°C, read-out: Kd BRD4 BD2 L/V): 1 µM
- binding to any WT BET bromodomain ([17]; ITC): no detectable binding
- ITC pKd ± SD WT [17]: <4.2
- ITC pKd ± SD Δ [18]: >1.8 ± 0.2
- ITC pKd ± SD L/V ([18]; mean and SD of all somatic bromodomains): 6.0 ± 0.2
- half-life at 50 µM (in vitro [19]): > 3 h
- Papp (in vitro [20]): 4.5 ×10⁻⁶ cm/s
